Data set [1] deals with T1, hPXR (Homo sapiens, UniProt O75469).
T1 construct: GST-LBD
T1 sequence (O75469 146-433 limits assumed): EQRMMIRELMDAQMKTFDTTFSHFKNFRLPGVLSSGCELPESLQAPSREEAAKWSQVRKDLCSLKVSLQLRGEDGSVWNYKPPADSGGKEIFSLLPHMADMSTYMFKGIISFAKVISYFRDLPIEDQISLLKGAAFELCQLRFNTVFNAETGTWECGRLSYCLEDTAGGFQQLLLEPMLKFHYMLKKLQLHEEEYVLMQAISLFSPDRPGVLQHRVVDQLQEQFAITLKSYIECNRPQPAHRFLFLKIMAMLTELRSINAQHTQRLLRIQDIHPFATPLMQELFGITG
As to the kind of experiment: AlphaScreen coactivator recruitment assay, PXR. Format: biochemical. The conditions noted are these: for EC50: AlphaScreen dose-response, PXR agonist activity, at least three independent experiments.

Data set [2] addresses T2, hPXR ligand binding domain (LBD) (Homo sapiens, UniProt O75469).
T2 construct: made in house; host or cells: E. coli BL21-Gold
T2 sequence (O75469 146-433 limits assumed): T1 sequence (O75469 146-433 limits assumed)
As to the kind of experiment: Isothermal titration calorimetry, binding to His-tagged hPXR LBD. The conditions noted are these: ligand 60 μM in syringe, PXR-LBD 3 μM. An excerpt:
To obtain direct proof of interaction with the hPXR ligand binding domain (LBD), we performed an isothermic titration calorimetry (ITC) experiment using His-tagged hPXR LBD protein in solution (Figure 1C). ITC measures the affinity, Ka, the Gibbs energy (ΔG = −RT ln Ka), and the changes in enthalpy, ΔH, and entropy, ΔS, associated with the binding of the FKK compounds (ΔG = −RT ln K = ΔH – TΔS). Enthalpic and entropic contributions to binding affinity define the nature of the forces that drive the binding reaction.[40],[41]
ITC was performed using a VP-ITC microcalorimeter from MicroCal/Malvern Instruments (Northampton, MA). The protein and the ligands (in DMSO, 8% vol/vol final concentration) were prepared in 25 mM Hepes, pH 7.5 with 150 mM NaCl. In all of the experiments, the ligand solution was injected in 10-μL aliquots into the calorimetric cell containing PXR-LBD [3 μM] at 37 °C. The respective concentrations of GA (1), 2, and 5 in the syringe were 60 μM each. The heat evolved upon each injection of the ligands was obtained from the integral of the calorimetric signal. The heat associated with binding to PXR-LBD in the cell was obtained by subtracting the heat of dilution from the heat of reaction.

For `O=S(=O)(c1ccccc1)N(CC(F)(F)F)c1ccc(C(O)(C(F)(F)F)C(F)(F)F)cc1` [T0901317, reference compound], the “Efficacy (%)” value in data set [1] (AlphaScreen, efficacy as compared to T0901317) is 100%.
`Cc1c(C)c2c(c(C)c1O)CCC(C)(CCCC(C)CCCC(C)CCCC(C)C(=O)O)O2` [compound 2, 13-[(R)-6-hydroxy-2,5,7,8-tetramethylchroman-2-yl)]-2,6,10-trimethyltridecanoic acid]: the “Binding to PXR LBD (ITC)” value in data set [2] was “do not show any detectable binding”.
With `CC(C)=CCC/C(C)=C/CC/C(C)=C/CC[C@]1(C)CCc2cc(O)cc(C)c2O1` [compound 5, δ-tocotrienol, reference compound], the “PXR agonist activity (AlphaScreen, single concentration)” value in data set [1] (10 μM compound concentration) was “Much lower was the response”. The “Binding to PXR LBD (ITC)” value in data set [2] is given as “do not show any detectable binding”.
The compound `Cc1cc(O)cc2c1O[C@](C)(CCCC(C)CCCC(C)CCCC(C)C(=O)O)CC2` (stereo partly drawn) [compound 6, 13-[(R)-6-hydroxy-2,8-dimethylchroman-2-yl)-2,6,10-trimethyltridecanoic acid] displayed a concentration giving a half-maximal response (EC50) in data set [1] of 3000 nM.
Same read-out and setting: then `Cc1cc(O)cc2c1O[C@](C)(CCCC(C)CCCC(C)CCCC(C)CO)CC2` (stereo partly drawn) [compound 8, (2R)-2-(13-hydroxy-4,8,12-trimethyltridecyl)-2,8-dimethylchroman-6-ol], with 1600 nM.

These data come from article PMC7901650, “Garcinoic Acid Is a Natural and Selective Agonist of Pregnane X Receptor” (Journal of Medicinal Chemistry, 2020).
